Like-named read-outs stand apart in the source and are kept apart here. Values belong to the compound of their own block, whether it stands above or below them.
Assays:
human Cx26 HCs = target: T1, human Cx26 HCs (Homo sapiens, UniProt P29033); test: Cx26-dependent growth complementation assay in E. coli LB2003; type: cell-based
T1 construct: expressed in transfected cells; host or cells: E. coli LB2003 (carrying pREP4), transformed with pQE-Cx26, IPTG-induced
Description: These derivatives were prepared by sequential benzylation and methylation followed by reduction of azido groups or hydrogenolysis of the Bn. […] Connexin HC inhibition was conducted using a bacteria-based assay of HC function^39. In this assay, Cx26 HCs are expressed in E. coli LB2003 cells, which lack three major K^+ uptake systems (Kdp, Kup and Trk), and as a result they cannot grow in low-[K^+] media^39-41. However, growth of this E. coli strain in low-[K^+] medium can be rescued by expression of K^+-permeable channels such as connexin HCs^39, 42-43. Under the conditions of the assay (LB2003 cells expressing HCs and grown in low-K^+ medium), inhibition of the HCs reduces or abolishes growth^39, 42-43. This is a simple assay where bacterial growth in multi-well plates can be followed by measuring the absorbance at 600 nm (OD600)^29.
LB2003 cells generously provided by Dr. E. P. Bakker (Osnabruk University, Osnabruk, Germany) were transformed with the plasmid pQE-Cx26 (human Cx26 into pQE60) and pREP4. […] LB2003 cells cannot grow in low-[K^+] media because of insufficient K^+ uptake for growth due to the knockout of three key K^+ transporters (Atrk, Akup, Akdp strain)^2-4. Details and validation of the growth complementation assay have been published recently^2. In brief, competent LB2003 containing the pREP4 plasmid were transformed with pQE-Cx26. These cells were grown overnight in Luria-Bertani medium (BD, Franklin Lakes, NJ, USA) supplemented with 100 mM KCl (to allow growth) and 0.4 mg/mL ampicillin, and then washed four times with NLM (see below), to remove residual K^+ from the Luria-Bertani medium. The washed cells were resuspended in complementation growth medium to an OD600 of 0.2. NLM contained 46 mM Na2HPO4, 23 mM NaH2PO4, 8 mM (NH4)2SO4, 0.4 mM MgSO4, 0.012 mM FeSO4, 1 mM sodium citrate, 44 mM glucose and 0.006 mM thiamine hydrochloride, pH 7.0. KLM had the same composition that NLM except for the equimolar replacement of Na^+ with K^+. For growth complementation we used NLM+4 mM KCl, and Cx26 expression was induced with 0.5 mM IPTG at the time of dilution to OD600=0.2. For the assay, the cells were seeded in 96-well plates and were incubated at 30° C., with shaking at 500 rpm. OD600 was measured after 18-h incubation in a plate reader. The initial OD600=0.2 was subtracted for growth calculations. Data are presented as means±SEM. Statistically significant differences were calculated by the Student t-test for unpaired data. Data were obtained from at least 3 independent experiments, with 3 repeats per experiment.

Cx43 HCs = target: T2, Cx43 HCs (Homo sapiens, UniProt P17302); test: Cx43-dependent growth complementation assay in E. coli LB2003; type: cell-based; conditions: for Cx43/Cx26 Selectivity: IC50 Cx26/IC50 Cx43
T2 construct: expressed in transfected cells
T2 sequence (P17302 whole entry): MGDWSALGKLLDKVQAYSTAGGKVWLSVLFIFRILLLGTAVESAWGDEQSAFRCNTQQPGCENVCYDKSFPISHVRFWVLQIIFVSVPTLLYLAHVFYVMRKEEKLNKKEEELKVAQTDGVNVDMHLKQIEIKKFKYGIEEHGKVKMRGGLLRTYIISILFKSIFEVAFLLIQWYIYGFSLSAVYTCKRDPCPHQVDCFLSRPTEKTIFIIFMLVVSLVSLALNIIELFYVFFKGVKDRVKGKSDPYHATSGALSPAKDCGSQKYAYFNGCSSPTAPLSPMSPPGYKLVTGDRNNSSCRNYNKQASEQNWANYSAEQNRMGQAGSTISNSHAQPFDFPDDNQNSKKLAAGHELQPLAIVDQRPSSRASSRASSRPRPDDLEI

[1] = 4″,6″-disubstituted AKs, Table 5, read-out: Cx26 IC50
[2] = K46 members, the 20th table, read-out: IC50 (μM) against Cx26
[3] = read-out: IC50, inhibition of Cx26 by kanamycin A and synthetic AGs, first Table 1
[4] = 4″,6″-disubstituted AKs, Table 5, read-out: Cx43 IC50
[5] = first Table 2, read-out: IC50, inhibition of Cx26 by synthetic AGs
[6] = 15 μM, Table 6, read-out: Cx43 (% inhibition)
[7] = Table 6, read-out: Cx43 (% inhibition)

- Cx43/Cx26 Selectivity (Cx43 HCs; the 16th table): 0.21
Structure (SMILES): NC[C@@H]1O[C@H](O[C@H]2[C@@H](O)[C@H](O[C@@H]3[C@@H](O)[C@H](N)C[C@H](N)[C@H]3O[C@H]3O[C@H](CO)[C@@H](O)[C@H](O)[C@H]3N)O[C@@H]2CO)[C@H](N)[C@@H](O)[C@@H]1O [Paromomycin, reference compound]

- inhibition at 15 µM (Cx43 HCs; 15 μM, KI members, the 23rd table, read-out: Cx43 % inhibition): 43.9 ± 4.3%
- Cx43 inhibition (%) (Cx43 HCs; 15 μM, Table 6, listed as 4i): 53.6 ± 4.6%
- inhibition at 15 µM (Cx43 HCs; [6]): > 50%
- inhibition at 50 µM (Cx43 HCs; KI members, the 23rd table, read-out: Cx43 % inhibition): 58.2 ± 3.9%
- inhibition at 50 µM (Cx43 HCs; [7]): 70.9 ± 2.3%
- Cx43/Cx26 Selectivity (Cx43 HCs; Table 7, listed as 4i): 6.88
- IC50 (Cx43 HCs; Table 7, read-out: Cx43 IC50): 9.7 ± 1.8 µM
- Cx43 Imax (Cx43 HCs; the 15th table, second Cx43 column, sub-head and unit not given): 82.2 ± 5.9
- IC50 (Cx43 HCs; the 15th table, sub-head and unit inferred, read-out: Cx43 IC50): 9.7 ± 1.8 µM
- inhibition at 15 µM (human Cx26 HCs; Table 3): 16.4 ± 2.3%
- inhibition at 15 µM (human Cx26 HCs; Table 6): 16.4 ± 2.3%
- inhibition at 50 µM (human Cx26 HCs; Table 3): 56.2 ± 6.8%
- inhibition at 50 µM (human Cx26 HCs; Table 6): 56.2 ± 6.8%
- Cx26 Imax (human Cx26 HCs; the 15th table, Cx26, sub-head and unit not given): 118.0 ± 7.6
- IC50 (human Cx26 HCs; the 15th table, Cx26, unit not given (cf. the 22nd table), read-out: Cx26 IC50): 66.7 ± 6.9 µM
Structure (SMILES): CCCCCCCCCCCC(=O)NCC1O[C@H](OC2C(N)CC(N)C(OC3O[C@H](CO)C(O)C(N)[C@H]3O)[C@H]2O)C(O)C(O)[C@@H]1O (stereo partly drawn) [KI04]

- inhibition at 15 µM (Cx43 HCs; 15 μM, K members, the 21st table, read-out: Cx43 % inhibition): 20 ± 7.4%
- inhibition at 15 µM (Cx43 HCs; 15 μM, Table 3, read-out: Cx243% inhibition): 20 ± 7.4%
- inhibition at 15 µM (Cx43 HCs; [6]): 20 ± 7.4%
- inhibition at 50 µM (Cx43 HCs; K members, the 21st table, read-out: Cx43 % inhibition): 34.8 ± 7.8%
- inhibition at 50 µM (Cx43 HCs; Table 3, read-out: Cx243% inhibition): 34.8 ± 7.8%
- inhibition at 50 µM (Cx43 HCs; [7]): 34.8 ± 7.8%
- inhibition at 15 µM (human Cx26 HCs; Table 3): 15.9 ± 4.2%
- inhibition at 15 µM (human Cx26 HCs; Table 6): 15.9 ± 4.2%
- inhibition at 50 µM (human Cx26 HCs; Table 3): 36.5 ± 4.7%
- inhibition at 50 µM (human Cx26 HCs; Table 6): 36.5 ± 4.7%
Structure (SMILES): COc1ccc(OC[C@H]2OC(OC3C(N)CC(N)C(O[C@H]4OC(CN)[C@@H](O)C(O)C4O)[C@@H]3O)[C@H](O)C(N)C2O)cc1 (stereo partly drawn) [Compound K81]

- IC50 (Cx43 HCs; [4]): 6.2 ± 4.4 µM
- Cx43/Cx26 Selectivity (Cx43 HCs; Table 5): 1.07
- IC50 (human Cx26 HCs; [5]): 4.9 ± 0.2 µM
Structure (SMILES): NCC1OC(OC2C(N)CC(N)C(OC3OC(COCc4ccc5ccccc5c4)C(OCc4ccc5ccccc5c4)C(N)C3O)C2O)C(O)C(O)C1O (stereo not drawn) [Compound 14, 4″,6″-Di-O-(2-naphthalenmethyl) kanamycin]

Further lines, the compound ahead of its results:

Structure (SMILES): CCCCCCO[C@H]1[C@H](N)[C@@H](O)[C@@H](O[C@@H]2[C@@H](O)[C@H](O[C@H]3O[C@H](CN)[C@@H](O)[C@H](O)[C@H]3O)[C@@H](N)C[C@H]2N)O[C@@H]1CO [Compound 4]
- IC50 (human Cx26 HCs; first Table 1): 13.5 ± 1.8 µM

Structure (SMILES): CCCCCCCCCOC[C@H]1O[C@H](O[C@H]2[C@H](O)[C@@H](O[C@H]3O[C@H](CN)[C@@H](O)[C@H](O)[C@H]3O)[C@H](N)C[C@@H]2N)[C@H](O)[C@@H](N)[C@@H]1OCCCCCCCCC [Compound 6]
- IC50 (human Cx26 HCs; [1]): 18.8 ± 1.3 µM
- IC50 (human Cx26 HCs; [2]): 18.8 ± 1.3 µM
- IC50 (human Cx26 HCs; [3]): 18.8 ± 1.3 µM

Structure (SMILES): COC1C(OC2C(N)CC(N)C(OC3OC(CN)C(OC)C(OC)C3OC)C2OC)OC(CO)C(O)C1N (stereo not drawn) [Compound 9, 5, 2′, 3′, 4′, 2″-Penta-O-methyl-kanamycin]
- inhibition of Cx26 HCs (in words) (human Cx26 HCs): lack of inhibitory activity
- IC50, inhibition of Cx26 by kanamycin A and synthetic AGs (human Cx26 HCs; first Table 1): No inhibition at 100 μM

Structure (SMILES): NCC1OC(OC2C(N)CC(N)C(OC3OC(COCc4ccc(Cl)cc4)C(OCc4ccc(Cl)cc4)C(N)C3O)C2O)C(O)C(O)C1O (stereo not drawn) [Compound 12, 4″,6″-Di-O-(4-chlorobenzyl) kanamycin]
- IC50 (Cx43 HCs; [4]): 17.1 ± 1.7 µM
- Cx43/Cx26 Selectivity (Cx43 HCs; Table 5): 0.15
- IC50 (Cx43 HCs; K46 members, the 20th table, read-out: IC50 (μM) against Cx43): 20.3 µM
- Cx43 Imax (maximal inhibition) (Cx43 HCs; the 12th table, Hill fit): 133%
- IC50 (Cx43 HCs; the 12th table, Hill fit, mean ± SEM, some n = 1, read-out: Cx43 IC50): 20.3 µM
- IC50 (human Cx26 HCs; [1]): 2.5 ± 0.6 µM
- IC50 (human Cx26 HCs; [2]): 2.5 ± 0.6 µM
- IC50 (human Cx26 HCs; [5]): 2.5 ± 0.6 µM

Structure (SMILES): COC1C(OC2C(N)CC(N)C(OC3OC(CN)C(OC)C(OC)C3OC)C2OC)OC(COCc2ccccc2)C(OCc2ccccc2)C1N (stereo not drawn) [Compound 8, 5, 2′, 3′, 4′, 2″-Penta-O-methyl-4″,6″-di-O-benzylkanamycin]
- IC50 (human Cx26 HCs; [2]): 8.4 ± 1.4 µM
- IC50 (human Cx26 HCs; [3]): 8.4 ± 1.4 µM

From patent US12286452B2, “Amphiphilic aminoglycoside connexin hemichannel inhibitors” (Texas Tech University System, priority 2018, dated 2025)
